Measured values from patent US8883740B2, “Peptides, compositions, and uses thereof” (Fundacao de Amparoa Pesquisa do Estado de Sao Paulo-Fapesp, priority 2008, dated 2014).
Where “and” joins values, the source holds several entries; their conditions need not be identical. Equal entries are not always repeated.

Experiments:
[1] = system: endothelial cells (HUVEC); experiment: Cell viability, MTT colorimetric assay under reduced serum; format: cell-based; details: 5 μg/ml; 48 hours; RPMI 1640 with 1% FBS; vs control without peptide
Protocol: Tests for cell viability (% viability) was realized utilizing reduced serum conditions and MTT (3-[4,5-Dimethylthiazol-2-yl]-2,5-Diphenyltetrazolium bromide) colorometric assay (Mosmann, 1983). The results are illustrated in FIGS. 1 to 3.
FIG. 1 illustrates the effect of peptides (5 μg/ml) on cell viability (% viability) of endothelial cells (HUVEC) when incubated together for 48 hours in RPMI 1640 with 1% FBS. The control has cells incubated in RPMI 1640 with 1% FBS (with no peptide).
FIG. 2 illustrates the effect of different concentrations of CNF011.05B on cell viability (% viability) of endothelial cells when incubated together for 120 hours in RPMI supplemented with 1% FBS.
FIG. 3 illustrates the effect of different concentrations of CNF011.05D on cell viability (% viability) of endothelial cells when incubated together for 48 hours in RPMI supplemented with 1% FBS.

[2] = system: Neutrophils; experiment: Neutrophil viability by flow cytometry (annexin V / propidium iodide), reduced serum; format: cell-based, Wistar Rats; details: reduced serum medium (1%), 24 hours
Protocol: (§1) Neutrophils or primary cultured endothelial cells from Wistar Rats were cultured in reduced serum medium (1%) in presence of CNF011.05D (3.0 μm/mL) and/or […] L-NAME, an inhibitor of NO synthase (and accordingly, an inhibitor of NO and resulting metabolite NO2 production). After 24 hours, cell viability was measured using flow cytometry analysis with FITC annexin V (1:500) and propidium iodide (10 μl of 50 mg/ml). The viability of both neutrophils (FIG. 4) and primary endothelial cells (FIG. 5) was increased with the peptide CNF011.05D alone, and this increase was diminished in presence of L-NAME.

[3] = system: primary cultured endothelial cells; experiment: Primary endothelial cell viability by flow cytometry (annexin V / propidium iodide), reduced serum; format: cell-based, Wistar Rats; details: reduced serum medium (1%), 24 hours
Protocol: as §1

[4] = system: Neutrophils; experiment: NO2 production by neutrophils, Griess reaction; format: cell-based, Wistar Rats; details: 1.5 μg/ml; 18 hours; absorbance at 550 nm
Protocol: Neutrophils were cultured for 18 hours with CNF011.05D (1.5 μg/ml), and production of NO metabolite NO2 secreted into culture was assessed by use of the Griess reaction, and measurement of absorbance at 550 nm.

[5] = system: Human fibroblasts; experiment: Production of fibronectin by fibroblasts, indirect immunofluorescence; format: cell-based; details: 0.35 μg; 4 days; vs saline; p<0.001
Protocol: (§2) Human fibroblasts were acquired from ear lobe skin fragments (0.5×0.5 cm) from 5 normal African-Brazilian female donors, with age ranging from 10 to 40 years old, respectively called 2/05, 3/05, 4/05, 6/05 and 8/05. The donors were submitted to excisional biopsies in a surgical environment after free voluntary consent.
(§3) Cells from the 6th subculture were placed in sterile culture plates and incubated with CNF011.05D at concentrations of 0.35 μg and 5 μg in culture medium for 4 days. The control group consisted of fibroblasts cultured under the same conditions, in which saline solution (a solvent of CNF011.05D) was added in the place of CNF011.05D.
(§4) Indirect immunofluorescence was performed using (1) Anti-fibronectin (cellular) mAb OR anti-human tenascin mAb (Sigma-USA); and (2) Alexa Fluor 488 (Molecular Probes-USA).
Samples tested are FBN-CN (cells treated with saline), FBN-0.35 (cells treated with CNF011.05D at 0.35 μg), and FBN-5 μg (cells treated with CNF011.05D at 5 μg).

[6] = system: Human fibroblasts; experiment: Production of tenascin by fibroblasts, indirect immunofluorescence; format: cell-based; details: 0.35 μg; 4 days; vs saline; p<0.001
Protocol: as §2, §3, §4
Samples tested are CN (cells treated with saline), TN-0.35 (cells treated with CNF011.05D at 0.35 μg), and TN-5 μg (cells treated with CNF011.05D at 5 μg).

[7] = system: collagen in the dermis; experiment: Production of collagen in the dermis after subcutaneous doses; format: in vivo
From the text: Levels of collagen were examined after different administrations of CNF011.05D: a single subcutaneous dose, two subcutaneous doses, and four subcutaneous doses.

[8] = system: punch wounds; experiment: Wound healing in rats, 6 mm punch wounds; format: in vivo, Wistar rats
Protocol: Size and microscopic appearance of punch wounds was assessed in rats after a single dose of CNF011.05D. The rats were Wistar rats of 6-to-8 weeks of age, which were anesthesized and operated on the dorsal side of their backs. Following clipping of hair and scrub sterilization, wounds were made in each rat using a 6 mm biopsy punch. Following wounding and drying with sterile gauze, wounds were subjected to (1) bandaging (Standard Care) or (2) application of CNF011.05D (235 nM in saline) followed by bandaging. Wounds evaluated at Days 3, 7, 14, and 21 were assessed by veterinarians and documented as to whether the wound was healing normally for the day post-wounding, and the size of the wound in cm^2.

[9] = system: punch wounds; experiment: Wound healing in pigs, 8 mm punch wounds, granulation tissue filling; format: in vivo, Domestic Yorkshire Crossbred pigs
Protocol: Levels of granulation tissue formation—a marker of the proliferative phase of Healing (Cascade)—were assessed in punch wounds after daily administrations of CNF011.05D or positive control (Bacaplermin gel 0.01%). The wounded animals were Domestic Yorkshire Crossbred pigs of 20 weeks of age, which were anesthesized and operated on the dorsal side of their backs. Following clipping of hair and scrub sterilization, 8 full thickness wounds were made in each pig using an 8 mm biopsy punch.
Following wounding and drying with sterile gauze, the wounds were subjected to application with different treatments (see Table 5 and 6) followed by bandaging. Long-term postoperative monitoring included daily inspection of the surgical sites for 14 days. The daily inspection included cleansing of the wounds, reapplication of the same treatments—Standard Care or Positive Control or CNF011.05D (1×) or CNF011.05D (100×)—followed by rebandaging. […]

[10] = CNF011.05D 3.0 μm/mL plus 1M L-NAME
[11] = 1x: 1 ml at 1.57 μg/ml in saline, daily, six wounds, Day 5
[12] = 1x: 1 ml at 1.57 μg/ml in saline, daily, six wounds, Day 7
[13] = 100x: 1 ml at 157 μg/ml in saline, daily, six wounds, Day 7

Question: Which “cell viability (% viability)” value [1] does the source give for APLWILSTDYDNYAIGYSC [CNF011.05B] here?
Answer: augment

Question: Which results are given for YAIGYSCKDYK [CNF011.05D]?
Answer: cell viability (% viability) [1]: augment; increase of viability of neutrophils in presence of L-NAME [2, 10]: diminished; viability of neutrophils ([2]; CNF011.05D alone 3.0 μm/mL): increased; increase of viability of primary endothelial cells in presence of L-NAME [3, 10]: diminished; viability of primary endothelial cells ([3]; CNF011.05D alone 3.0 μm/mL): increased; production of NO2 [4]: increases; production of fibronectin by fibroblasts [5]: significant enhancement; tenascin production by fibroblasts [6]: significant difference; Treated Skin Collagen (%) ([7]; four subcutaneous doses 0.30 μg (total 1.20), 4 weeks after dose): 37.60% and 34.94%; Treated Skin Collagen (%) ([7]; single subcutaneous dose 0.30 μg, 1 week after dose): 41.20% and 57.15%; Treated Skin Collagen (%) ([7]; single subcutaneous dose 0.30 μg, 2 weeks after dose): 43.78% and 39.20%; Treated Skin Collagen (%) ([7]; single subcutaneous dose 0.30 μg, 12 weeks after dose): 29.57% and 27.22%; Treated Skin Collagen (%) ([7]; two subcutaneous doses 0.30 μg one week apart (total 0.60), 2 weeks after dose): 44.19% and 37.91%; Treated Skin Collagen (%) ([7]; two subcutaneous doses 0.30 μg one week apart (total 0.60), 12 weeks after dose): 39.23% and 47.33%; Day 3 Size of punch wounds ([8]; 235 nM in saline, single dose, then bandaging, Day 3, 8 rats per timepoint): 0.200 cm^2; Day 7 Size of punch wounds ([8]; 235 nM in saline, single dose, then bandaging, Day 7, 8 rats per timepoint): 0.084 cm^2; Day 14 Size of punch wounds ([8]; 235 nM in saline, single dose, then bandaging, Day 14, 8 rats per timepoint): 0.053 cm^2; Day 21 Size of punch wounds ([8]; 235 nM in saline, single dose, then bandaging, Day 21, 8 rats per timepoint): Scar **; scar size and color ([8]; 21 days, in comparison to Standard Care (negative control)): scars of reduced size and color; Granulation Tissue Filling No (wounds) ([9]; 1x: 1 ml at 1.57 μg/ml in saline, daily, six wounds, Day 1): 6; Granulation Tissue Filling No (wounds) [9, 11]: 3; Granulation Tissue Filling Yes (wounds) [9, 11]: 3; Granulation Tissue Filling No (wounds) [9, 12]: 2; Granulation Tissue Filling Yes (wounds) [9, 12]: 4; Granulation Tissue Filling Yes (wounds) ([9]; 1x: 1 ml at 1.57 μg/ml in saline, daily, six wounds, Day 10): 6; Granulation Tissue Filling Yes (wounds) ([9]; 1x: 1 ml at 1.57 μg/ml in saline, daily, six wounds, Day 14): 6; Granulation Tissue Filling No (wounds) ([9]; 1x: 1 ml ointment at 1.57 μg/ml in Hydroxyethyl cellulose/Glycerin (20%/80%), two wounds, Day 1): 2; Granulation Tissue Filling Yes (wounds) ([9]; 1x: 1 ml ointment at 1.57 μg/ml in Hydroxyethyl cellulose/Glycerin (20%/80%), two wounds, Day 5): 2; Granulation Tissue Filling Yes (wounds) ([9]; 1x: 1 ml ointment at 1.57 μg/ml in Hydroxyethyl cellulose/Glycerin (20%/80%), two wounds, Day 7): 2; Granulation Tissue Filling Yes (wounds) ([9]; 1x: 1 ml ointment at 1.57 μg/ml in Hydroxyethyl cellulose/Glycerin (20%/80%), two wounds, Day 10): 2; Granulation Tissue Filling Yes (wounds) ([9]; 1x: 1 ml ointment at 1.57 μg/ml in Hydroxyethyl cellulose/Glycerin (20%/80%), two wounds, Day 14): 2; Granulation Tissue Filling No (wounds) ([9]; 100x: 1 ml at 157 μg/ml in saline, daily, six wounds, Day 1): 6; Granulation Tissue Filling No (wounds) ([9]; 100x: 1 ml at 157 μg/ml in saline, daily, six wounds, Day 5): 6; Granulation Tissue Filling No (wounds) [9, 13]: 5; Granulation Tissue Filling Yes (wounds) [9, 13]: 1; Granulation Tissue Filling Yes (wounds) ([9]; 100x: 1 ml at 157 μg/ml in saline, daily, six wounds, Day 10): 6; Granulation Tissue Filling Yes (wounds) ([9]; 100x: 1 ml at 157 μg/ml in saline, daily, six wounds, Day 14): 6; Granulation Tissue Filling No (wounds) ([9]; 100x: 1 ml ointment at 157 μg/ml in Hydroxyethyl cellulose/Glycerin (20%/80%), two wounds, Day 1): 2; Granulation Tissue Filling Yes (wounds) ([9]; 100x: 1 ml ointment at 157 μg/ml in Hydroxyethyl cellulose/Glycerin (20%/80%), two wounds, Day 5): 2; Granulation Tissue Filling Yes (wounds) ([9]; 100x: 1 ml ointment at 157 μg/ml in Hydroxyethyl cellulose/Glycerin (20%/80%), two wounds, Day 7): 2; Granulation Tissue Filling Yes (wounds) ([9]; 100x: 1 ml ointment at 157 μg/ml in Hydroxyethyl cellulose/Glycerin (20%/80%), two wounds, Day 10): 2; Granulation Tissue Filling Yes (wounds) ([9]; 100x: 1 ml ointment at 157 μg/ml in Hydroxyethyl cellulose/Glycerin (20%/80%), two wounds, Day 14): 2
